≈ marks a conversion by molar mass, not a printed value. Read-outs that look alike come from different tables or passages of the source.
Legend:
[1] = tested on: VE 150 (VanB); experiment: MIC, VanB-type VRE strain VE 150; format: cell-based, Enterococcus; settings: VE 150, VanB; read-out: MIC
Method: (§1) The minimum inhibitory concentration (MIC) was determined using the broth microdilution method according to the antimicrobial susceptibility testing standards of the clinical and laboratory standards institute ([Clinical and Laboratory Standards Institute [CLSI], 2012]). Ultrapure water and non-inoculated broth were used as controls. In one case, a final concentration of 10 μM vancomycin was included with the vancomycin analog or control antibiotic.

[2] = tested on: E. faecalis VRE 29; experiment: MIC, broth microdilution, vancomycin-resistant E. faecalis VRE 29 (VanA); format: cell-based, Enterococcus faecalis
Procedure, shortened: (§2)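 Inhibitory concentrations were read by the CLSI broth microdilution procedure, with water and sterile broth as controls. One experiment added vancomycin (10 μM final) together with each analogue or reference antibiotic.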

[3] = tested on: L1210, CEM and HeLa cell lines; experiment: Cytostatic activity, average or summary over L1210, CEM and HeLa; format: cell-based
Procedure, shortened: (§3)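 Test compounds, serially diluted, received an equal volume of cell suspension at 300,000–500,000 cells/mL. After 37°C incubation (2 days for L1210, 3 for CEM, 4 for HeLa), cells were enumerated by Coulter counting and 50%-inhibitory concentrations calculated per cell type.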

[4] = tested on: VE 152 (VanB); experiment: MIC, VanB-type VRE strain VE 152; format: cell-based, Enterococcus; settings: VE 152, VanB; read-out: MIC
Method: as §1

[5] = tested on: VE 82 (VanC1); experiment: MIC, VanC1-type VRE strain VE 82; format: cell-based, Enterococcus gallinarum; settings: VE 82, VanC1; read-out: MIC
Method: as §1

[6] = tested on: E. faecalis VRE 6; experiment: MIC, broth microdilution, vancomycin-resistant E. faecalis VRE 6 (VanA); format: cell-based, Enterococcus faecalis
Procedure, shortened: as §2

[7] = tested on: 24 clinical MRSA isolates; experiment: MIC against a set of 24 clinical MRSA isolates (range, MIC50, TI); format: cell-based, Staphylococcus aureus
Method: as §1

[8] = tested on: human cervix carcinoma (HeLa) cells; experiment: Cytostatic activity, HeLa cell proliferation; format: cell-based; settings: mean ± SD of three experiments; highest concentration tested 250 µM; 4 days; read-out: Toxicity (IC50) HeLa
Procedure, shortened: as §3

[9] = tested on: S. aureus VRSA; experiment: MIC, broth microdilution, vancomycin-resistant S. aureus (VRSA); format: cell-based, Staphylococcus aureus
Procedure, shortened: as §2

[10] = tested on: E. faecalis VSE 1; experiment: MIC, broth microdilution, vancomycin-sensitive E. faecalis (VSE 1); format: cell-based, Enterococcus faecalis
Procedure, shortened: as §2

[11] = tested on: VE 157 (VanB); experiment: MIC, VanB-type VRE strain VE 157; format: cell-based, Enterococcus; settings: VE 157, VanB; read-out: MIC
Method: as §1

[12] = tested on: MRSA KS6; experiment: MIC, broth microdilution, MRSA KS6; format: cell-based, Staphylococcus aureus
Procedure, shortened: as §2

[13] = tested on: S. aureus VSSA (ATCC 6538); experiment: MIC, broth microdilution, vancomycin-sensitive S. aureus (VSSA/MSSA, ATCC 6538); format: cell-based, Staphylococcus aureus
Procedure, shortened: as §2

[14] = tested on: E. faecalis VRE 53; experiment: MIC, broth microdilution, vancomycin-resistant E. faecalis VRE 53 (VanA); format: cell-based, Enterococcus faecalis
Procedure, shortened: as §2

[15] = tested on: E. faecalis VRE 37; experiment: MIC, broth microdilution, vancomycin-resistant E. faecalis VRE 37 (VanA); format: cell-based, Enterococcus faecalis
Procedure, shortened: as §2

[16] = tested on: Murine leukemia (L1210) cells; experiment: Cytostatic activity, L1210 cell proliferation; format: cell-based; settings: mean ± SD of three experiments; highest concentration tested 250 µM; 2 days; read-out: Toxicity (IC50) L1210
Procedure, shortened: as §3

[17] = tested on: VE 149 (VanB); experiment: MIC, VanB-type VRE strain VE 149; format: cell-based, Enterococcus; settings: VE 149, VanB; read-out: MIC
Method: as §1

[18] = tested on: MRSA KS1; experiment: MIC, broth microdilution, MRSA KS1; format: cell-based, Staphylococcus aureus
Procedure, shortened: as §2

[19] = tested on: MRSA KS89; experiment: MIC, broth microdilution, MRSA KS89; format: cell-based, Staphylococcus aureus
Procedure, shortened: as §2

[20] = tested on: 33 clinical VRE isolates; experiment: MIC against a set of 33 clinical VRE isolates (range, MIC50, TI); format: cell-based, Enterococcus faecalis
Method: as §1

[21] = tested on: MRSA KS2; experiment: MIC, broth microdilution, MRSA KS2; format: cell-based, Staphylococcus aureus
Procedure, shortened: as §2

[22] = tested on: VE 148 (VanB); experiment: MIC, VanB-type VRE strain VE 148; format: cell-based, Enterococcus; settings: VE 148, VanB; read-out: MIC
Method: as §1

[23] = tested on: human T-lymphocyte (CEM) cells; experiment: Cytostatic activity, CEM cell proliferation; format: cell-based; settings: mean ± SD of three experiments; highest concentration tested 250 µM; 3 days; read-out: Toxicity (IC50) CEM
Procedure, shortened: as §3

[24] = tested on: Clostridium difficile ATJ ribotype 014/20; experiment: MIC, plate drop assay, C. difficile ATJ ribotype 014/20; format: cell-based; settings: C. difficile ATJ ribotype 014/20
Procedure, shortened: (§4)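 Lawns of each strain were made in soft BHI agar (0.4%) supplemented with CaCl2⋅2H2O and MgCl2⋅6H2O. Twofold compound dilutions (10 μL) were spotted, air-dried and incubated overnight at 37°C anaerobically; MIC read as cleared spots, in triplicate with water as negative control.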

[25] = tested on: S. aureus VISA/HIP5827; experiment: MIC, broth microdilution, vancomycin-intermediate S. aureus VISA HIP5827; format: cell-based, Staphylococcus aureus; settings: VISA/HIP5827; ratio of MIC of vancomycin and MIC of analogue
Procedure, shortened: as §2

[26] = tested on: Clostridium difficile AIU ribotype 027; experiment: MIC, plate drop assay, C. difficile AIU ribotype 027; format: cell-based; settings: C. difficile AIU ribotype 027
Procedure, shortened: as §4

[27] = tested on: MRSA; experiment: Minimum bactericidal concentration against MRSA; format: cell-based, Staphylococcus aureus
Method: Plates were incubated overnight at 37°C and colony growth was inspected.

SMILES: CNC(CC(C)C)C(=O)NC1C(=O)NC(CC(N)=O)C(=O)NC2C(=O)NC3C(=O)NC(C(=O)NC(C(=O)NCCCNC(=O)c4cc5ccccc5[nH]4)c4cc(O)cc(O)c4-c4cc3ccc4O)C(O)c3ccc(c(Cl)c3)Oc3cc2cc(c3OC2OC(CO)C(O)C(O)C2OC2CC(C)(N)C(O)C(C)O2)Oc2ccc(cc2Cl)C1O (stereo not shown) [Vanc-24]
- MIC [1]: 1.56 µM (≈ 2.57 µg/mL)
- MIC ([2]; Enterococcus faecalis VRE 29 (vancomycin-resistant), read-out: MIC): 12.5 µM (≈ 20.6 µg/mL)
- MIC-fold improvement vs. vancomycin ([2]; VRE 29, ratio of MIC of vancomycin and MIC of analogue): 32
- IC50 ([3]; average IC50 used for TI in Table S5, >250 entered as 250, read-out: IC50): 165 µM
- IC50 ([3]; average of L1210, CEM and HeLa, read-out: Toxicity (IC50) Average): 165 µM
- MIC [4]: 1.56 µM (≈ 2.57 µg/mL)
- MIC [5]: 0.39 µM (≈ 0.643 µg/mL)
- MIC ([6]; Enterococcus faecalis VRE 6 (vancomycin-resistant), read-out: MIC): 0.78 µM (≈ 1.29 µg/mL)
- MIC-fold improvement vs. vancomycin ([6]; VRE 6, ratio of MIC of vancomycin and MIC of analogue): 256
- MIC Range ([7]; 24 clinical MRSA isolates): 0.10 to 0.78 µM
- TI (IC50/MIC50) ([7]; in vitro therapeutic index, MRSA): 825
- MIC50 ([7]; median MIC, 24 clinical MRSA isolates, read-out: MIC50): 0.20 µM (≈ 0.33 µg/mL)
- IC50 [8]: 83 ± 9 µM
- MIC ([9]; Staphylococcus aureus VRSA, read-out: MIC): 1.56 µM (≈ 2.57 µg/mL)
- MIC-fold improvement vs. vancomycin ([9]; VRSA, ratio of MIC of vancomycin and MIC of analogue): 64
- MIC ([10]; Enterococcus faecalis VSE 1 (vancomycin-sensitive), read-out: MIC): 0.20 µM (≈ 0.33 µg/mL)
- MIC-fold improvement vs. vancomycin ([10]; VSE 1, ratio of MIC of vancomycin and MIC of analogue): 8
- MIC [11]: 1.56 µM (≈ 2.57 µg/mL)
- MIC-fold improvement vs. vancomycin ([12]; MRSA KS6, ratio of MIC of vancomycin and MIC of analogue): 2
- MIC ([12]; Staphylococcus aureus MRSA KS6, read-out: MIC): 0.39 µM (≈ 0.643 µg/mL)
- MIC ([13]; Staphylococcus aureus VSSA, read-out: MIC): 0.20 µM (≈ 0.33 µg/mL)
- MIC-fold improvement vs. vancomycin ([13]; VSSA, ratio of MIC of vancomycin and MIC of analogue): 4
- MIC ([14]; Enterococcus faecalis VRE 53 (vancomycin-resistant), read-out: MIC): 25 µM (≈ 41.2 µg/mL)
- MIC-fold improvement vs. vancomycin ([14]; VRE 53, ratio of MIC of vancomycin and MIC of analogue): 16
- MIC ([15]; Enterococcus faecalis VRE 37 (vancomycin-resistant), read-out: MIC): 6.25 µM (≈ 10.3 µg/mL)
- MIC-fold improvement vs. vancomycin ([15]; VRE 37, ratio of MIC of vancomycin and MIC of analogue): 64
- IC50 [16]: 164 ± 20 µM
- MIC [17]: 1.56 µM (≈ 2.57 µg/mL)
- MIC-fold improvement vs. vancomycin ([18]; MRSA KS1, ratio of MIC of vancomycin and MIC of analogue): 2
- MIC ([18]; Staphylococcus aureus MRSA KS1, read-out: MIC): 0.39 µM (≈ 0.643 µg/mL)
- MIC-fold improvement vs. vancomycin ([19]; MRSA KS8, ratio of MIC of vancomycin and MIC of analogue): 2
- MIC ([19]; Staphylococcus aureus MRSA KS8, read-out: MIC): 0.39 µM (≈ 0.643 µg/mL)
- MIC Range ([20]; 33 clinical VRE isolates): 3.13 to 50 µM
- TI (IC50/MIC50) ([20]; in vitro therapeutic index, VRE): 26
- MIC50 ([20]; median MIC, 33 clinical VRE isolates, read-out: MIC50): 6.25 µM (≈ 10.3 µg/mL)
- MIC-fold improvement vs. vancomycin ([21]; MRSA KS2, ratio of MIC of vancomycin and MIC of analogue): 4
- MIC ([21]; Staphylococcus aureus MRSA KS2, read-out: MIC): 0.20 µM (≈ 0.33 µg/mL)
- MIC [22]: 3.13 µM (≈ 5.16 µg/mL)
- IC50 [23]: 248 ± 3 µM
- MIC-fold improvement vs. vancomycin [24]: 11
- MIC-fold improvement vs. vancomycin [25]: 32
- MIC-fold improvement vs. vancomycin [26]: 14
- MBC relative to MIC [27]: MBC equaling their MIC values
